Structures are written as SMILES.

In the assay the target is T1, MAGL protein (Homo sapiens, UniProt Q99685).
T1 sequence (Q99685 1-303): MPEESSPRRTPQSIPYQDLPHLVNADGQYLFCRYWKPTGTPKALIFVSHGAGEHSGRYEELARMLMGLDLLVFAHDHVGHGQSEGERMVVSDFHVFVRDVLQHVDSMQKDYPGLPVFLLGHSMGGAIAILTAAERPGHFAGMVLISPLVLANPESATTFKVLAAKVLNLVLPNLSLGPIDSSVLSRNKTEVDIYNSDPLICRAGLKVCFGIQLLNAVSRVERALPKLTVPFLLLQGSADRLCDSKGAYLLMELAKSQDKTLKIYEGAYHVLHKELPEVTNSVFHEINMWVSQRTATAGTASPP
As to the kind of experiment: 2-AG assay: MAGL inhibitory activity by hydrolysis of 2-arachidonoylglycerol to arachidonic acid, followed by mass spectrometry. The class given is biochemical. As to conditions: 8 μM 2-arachidonoylglycerol, 15 min preincubation, 30 min reaction at RT, RapidFire MS readout. Put shortly:
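MAGL was preincubated 15 min at RT with compound (12.5 to […], 3-fold steps) in 50 mM TRIS, 1 mM EDTA, 0.01% Tween-20, 2.5% DMSO. The reaction ran 30 min at RT with 8 μM 2-AG. Arachidonic acid was quantified by RapidFire SPE-MS/MS against a d8-arachidonic acid internal standard.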
What is called IC50 is the midpoint of a concentration-inhibition curve. Read a low IC50 as greater potency. For the molecule `N#Cc1cc(OC2CC3(C2)CN(C(=O)N2CC4(CC(c5nc(C6CC6)n[nH]5)C4)C2)C3)ccc1C(F)(F)F` [compound 499], the midpoint of inhibition, the IC50, lay at 3.46 nM. In other words, the single-digit nanomolar range. For `O=C(N1CC2(CC(Cc3ccc(OC(F)(F)F)nc3)C2)C1)N1CC2(CC(c3nc(C4CC4)n[nH]3)C2)C1` [compound 501] the value was 0.92 nM. For `O=C(N1CC(OCc2ccc(S(=O)(=O)C(F)(F)F)cc2F)C1)N1CC2(CC(c3nc(C4CC(F)(F)C4)n[nH]3)C2)C1` [compound 502] the value was 262 nM.

In the case of `O=C(N1CC(c2cnc(NCC3(C(F)(F)F)CC3)cn2)C1)N1CC2(CC(c3nc(C4(F)CC4)n[nH]3)C2)C1` [compound 503], the half-inhibitory concentration (IC50) amounted to 0.69 nM. In the case of `Cc1nc(C(F)(F)F)c(CN2CC3(C2)CN(C(=O)N2CC4(CC(c5nc(C6CC6)n[nH]5)C4)C2)C3)s1` [compound 504] it was 1.04 nM; in that of `O=C(N1CC2(CC(Cc3ccc(S(=O)(=O)C4CC4)cc3)C2)C1)N1CC2(CC(c3nc(C4(O)CC4)n[nH]3)C2)C1` [compound 505], 1.3 nM; in that of `Cn1nc(CC2CC3(C2)CN(C(=O)N2CC4(CC(c5nc(C6CC6)n[nH]5)C4)C2)C3)cc1C(F)(F)F` [compound 506], 0.12 nM. As to `O=C(N1CC2(CCN(Cc3ncc(C(F)F)s3)CC2)C1)N1CC2(CC(c3nc(C4CC4)n[nH]3)C2)C1` [compound 507], half-maximal inhibition (IC50) was put at 5.84 nM. Consider `O=C(N1CC2(CC(Cc3ncc(C(F)(F)F)cc3F)C2)C1)N1CC2(CC(c3nc(C4CC(F)(F)C4)n[nH]3)C2)C1` [compound 508], for which it took 6.66 nM to reach half-maximal inhibition (IC50). For `N#Cc1cc(F)ccc1C12CC(C3CN(C(=O)N4CC5(CC(c6nc(C7(O)CC7)n[nH]6)C5)C4)C3)(C1)C2` [compound 509] the value was 5.16 nM; for `N#Cc1cccn(CC2CC3(C2)CN(C(=O)N2CC4(CC(c5nc(C6CC6)n[nH]5)C4)C2)C3)c1=O` [compound 510], 20.4 nM. As to `Cn1nc(CC2CC3(C2)CN(C(=O)N2CC4(CC(c5nc(C6CC(F)(F)C6)n[nH]5)C4)C2)C3)cc1C(F)(F)F` [compound 511], 20.8 nM corresponded to half-maximal inhibition (IC50). In the case of `N#Cc1ncc(CC2CC3(C2)CN(C(=O)N2CC4(CC(c5nc(C6(F)CC6)n[nH]5)C4)C2)C3)cc1C(F)(F)F` [compound 512] it was 0.67 nM; in that of `O=C(N1CC2(CC(c3nc(C4CC4)n[nH]3)C2)C1)N1CC2(CN(Cc3cnn(C(F)(F)F)c3)C2)C1` [compound 513], 31.9 nM; in that of `O=C(N1CC(C23CC(c4cc(C5CC5)n[nH]4)(C2)C3)C1)N1CC2(CC(c3nc(C4CC4)n[nH]3)C2)C1` [compound 514], 0.47 nM. For `O=C(N1CC2(CC(Cc3ccc(C(F)(F)F)cn3)C2)C1)N1CC2(CC(c3nc(C4(F)CC4)n[nH]3)C2)C1` [compound 517] the value was 0.15 nM; for `O=C(N1CC2(CC(Cc3cc(F)cc(S(=O)(=O)C(F)(F)F)c3)C2)C1)N1CC2(CC(c3nc(C4(O)CC4)n[nH]3)C2)C1` [compound 518], 0.22 nM; for `O=C(N1CCC(c2nn(CCO)c3ccc(C(F)(F)F)cc23)CC1)N1CC2(CC(c3nnc(C4CC4)[nH]3)C2)C1` [compound 519], 13.9 nM.

For `O=C(N1CC2(CC(Oc3cncc(C(F)(F)F)c3)C2)C1)N1CC2(CC(c3nc(C4CC4)n[nH]3)C2)C1` [compound 520], the concentration for half-maximal inhibition (IC50) was determined as 2.23 nM. In the case of `O=C(N1CC2(CC(c3nc(C4CC4)n[nH]3)C2)C1)N1CC2(CN(Cc3nnnn3CC(F)(F)F)C2)C1` [compound 521] it was 78.6 nM. In the case of `O=C(N1CC2(CC(Cc3ccc(C(F)(F)F)cc3F)C2)C1)N1CC2(CC(c3nc(C4(F)CC4)n[nH]3)C2)C1` [compound 522], the IC50 was 0.05 nM. This IC50 is about 1600-fold lower than that of the molecule before.

`O=C(N1CC2(CC(Cn3cc(C(F)(F)F)cn3)C2)C1)N1CC2(CC(c3nc(C4(F)CC4)n[nH]3)C2)C1` [compound 523] registered an IC50 of 0.53 nM. `O=C(N1CC2(CC(Cc3nc(C(F)(F)F)c[nH]3)C2)C1)N1CC2(CC(c3nc(C4CC4)n[nH]3)C2)C1` [compound 524] gave an IC50 of 1.4 nM. Compared with the last molecule, the IC50 is about 2.6-fold higher. For `O=C(N1CC2(CCN(Cc3cc(C(F)(F)F)[nH]n3)CC2)C1)N1CC2(CC(c3nc(C4CC4)n[nH]3)C2)C1` [compound 525], the IC50 was 7.08 nM. For `O=C(N1CC2(CC(Cc3ccc(S(=O)(=O)C(F)(F)F)cc3)C2)C1)N1CC2(CC(c3nc(C4CC(F)(F)C4)n[nH]3)C2)C1` [compound 526] the value was 4.6 nM. `O=C(N1CC(C23CC(Cc4ccc(C(F)(F)F)cc4F)(C2)C3)C1)N1CC2(CC(c3nc(C4CC4)n[nH]3)C2)C1` [compound 527] gave an IC50 of 0.98 nM. Molecule `O=C(N1CC(C23CC(S(=O)(=O)CC4(C(F)(F)F)CC4)(C2)C3)C1)N1CC2(CC(c3nc(C4CC4)n[nH]3)C2)C1` [compound 528] gave a 50% inhibitory concentration (IC50) of 497 nM. For `O=C(N1CC(C23CC(c4cccc(OC(F)(F)F)c4)(C2)C3)C1)N1CC2(CC(c3nc(C4(O)CC4)n[nH]3)C2)C1` [compound 529] the value was 0.31 nM.

Take `Cn1ncc(CC2CC3(C2)CN(C(=O)N2CC4(CC(c5nc(C6CC(F)(F)C6)n[nH]5)C4)C2)C3)c1C(F)(F)F` [compound 530]: the midpoint of inhibition, the IC50, lay at 13.9 nM. This IC50 is about 45-fold higher than that of the molecule before. For `O=C(N1CC2(CC(c3nc(C4(F)CC4)n[nH]3)C2)C1)N1CC2(CN(Cc3cc(C(F)(F)F)ns3)C2)C1` [compound 531] the value was 7.53 nM; for `N=S(=O)(c1cccc(CC2CC3(C2)CN(C(=O)N2CC4(CC(c5nc(C6(O)CC6)n[nH]5)C4)C2)C3)c1)C(F)(F)F` (stereo not drawn) [compound 532], 0.21 nM; for `O=C(N1CC2(CC(c3nc(C4CC4)n[nH]3)C2)C1)N1CC2(CC(S(=O)(=O)c3cccc(OC(F)(F)F)c3)C2)C1` [compound 533], 5.57 nM.

Turning to `Cc1nc(C(F)F)nn1-c1ccc(C2CN(C(=O)N3CC4(CC(c5nnc(C6CC6)[nH]5)C4)C3)C2)cc1` [compound 534], the midpoint of inhibition, the IC50, lay at 5.42 nM. This IC50 and that of the molecule before are within 1.5-fold of each other. For `N#Cc1ncc(CC2CC3(C2)CN(C(=O)N2CC4(CC(c5nnc(C6CC6)[nH]5)C4)C2)C3)cc1C(F)(F)F` [compound 535] the value was 0.65 nM.

For `O=C(N1CC2(CC(Cc3nc(C(F)(F)F)cs3)C2)C1)N1CC2(CC(c3nc(C4(O)CC4)n[nH]3)C2)C1` [compound 536], half-maximal inhibition (IC50) was put at 3.93 nM.

In turn, `Cn1cnc(C#N)c1CN1CC2(C1)CN(C(=O)N1CC3(CC(c4nc(C5CC5)n[nH]4)C3)C1)C2` [compound 537] came in with a concentration for half-maximal inhibition (IC50) of 237 nM. This IC50 is about 60-fold higher than that of the molecule before. In the case of `Cn1nc(C(F)(F)F)cc1CN1CCC2(CC1)CN(C(=O)N1CC3(CC(c4nc(C5CC5)n[nH]4)C3)C1)C2` [compound 539] it was 9.25 nM; in that of `O=C(N1CC(C23CC(c4ccc(S(=O)(=O)C(F)(F)F)cc4)(C2)C3)C1)N1CC2(CC(c3nc(C4CC4)n[nH]3)C2)C1` [compound 540], 0.05 nM. For `O=C(N1CC2(CC(c3nc(C4CC4)n[nH]3)C2)C1)N1CC2(CN(Cc3ccc(=O)[nH]c3)C2)C1` [compound 541] the value was 1110 nM. For `Cn1cc(OC2CC3(C2)CN(C(=O)N2CC4(CC(c5nc(C6CC6)n[nH]5)C4)C2)C3)cn1` [compound 542] the value was 81.9 nM; for `O=C(N1CC2(CC(c3nc(C4CC4)n[nH]3)C2)C1)N1CC2(CC[C@@H](Cc3cccc(S(=O)(=O)C(F)(F)F)c3)C2)C1` [compound 543], 0.02 nM; for `O=C(N1CC2(CCN(Cc3cc(C(F)(F)F)on3)CC2)C1)N1CC2(CC(c3nc(C4CC4)n[nH]3)C2)C1` [compound 544], 8.72 nM. With `O=C(N1CC2(CC(Cc3cncc(C(F)(F)F)c3)C2)C1)N1CC2(CC(c3nc(C4CC(F)(F)C4)n[nH]3)C2)C1` [compound 545], the IC50 was 46.9 nM.

In the case of `O=C(N1CC2(CC(c3nc(C4CC4)n[nH]3)C2)C1)N1CC2(CN(Cc3nnn(CC(F)(F)F)n3)C2)C1` [compound 546], it took 140 nM to reach half-maximal inhibition (IC50). In the case of `N#Cc1cc(CC2CC3(C2)CN(C(=O)N2CC4(CC(c5nc(C6CC(F)(F)C6)n[nH]5)C4)C2)C3)ccc1C(F)(F)F` [compound 547] it was 5.86 nM. As to `O=C(N1CC2(CC(c3nc(C4CC4)n[nH]3)C2)C1)N1CC2(CCN(Cc3cccc(S(=O)(=O)C(F)(F)F)c3)C2)C1` [compound 549], the IC50 was 0.66 nM. For `O=C(N1CC2(CCC(S(=O)(=O)c3ccc(C(F)(F)F)cc3)CC2)C1)N1CC2(CC(c3nc(C4(O)CC4)n[nH]3)C2)C1` [compound 550] the value was 9.81 nM; for `O=C(N1CC(C23CC(c4ccc(OC(F)(F)F)cc4)(C2)C3)C1)N1CC2(CC(c3nc(C4(O)CC4)n[nH]3)C2)C1` [compound 551], 0.18 nM. For `O=C(N1CC(C23CC(Oc4cnc(C(F)(F)F)cn4)(C2)C3)C1)N1CC2(CC(c3nc(C4(O)CC4)n[nH]3)C2)C1` [compound 552] the value was 26.2 nM; for `CCn1nc(C(F)(F)F)cc1CN1CC2(C1)CN(C(=O)N1CC3(CC(c4nc(C5CC5)n[nH]4)C3)C1)C2` [compound 553], 4.55 nM.

`O=C(N1CC2(CC(c3nc(C4CC4)n[nH]3)C2)C1)N1CC2(CN(Cc3ccc(S(=O)(=O)C(F)(F)F)cc3F)C2)C1` [compound 554]: half-maximal inhibition (IC50) required 0.56 nM. In the case of `N=S(=O)(c1ccc(CC2CC3(C2)CN(C(=O)N2CC4(CC(c5nc(C6(O)CC6)n[nH]5)C4)C2)C3)cc1)C(F)(F)F` (stereo not drawn) [compound 555] it was 0.34 nM. In the case of `N#Cc1cc(C(F)(F)F)ccc1CC1CC2(C1)CN(C(=O)N1CC3(CC(c4nnc(C5CC5)[nH]4)C3)C1)C2` [compound 556] it was 0.45 nM.

In turn, `O=C(N1CC(C23CC(c4nnc(C5(C(F)(F)F)CC5)s4)(C2)C3)C1)N1CC2(CC(c3nc(C4CC4)n[nH]3)C2)C1` [compound 557] displayed a 50% inhibitory concentration (IC50) of 12.4 nM.

(Values after US20250099448A1, “HETEROCYCLIC COMPOUNDS” (Hoffmann-La Roche Inc., priority 2022, published 2025).)
